# Laboratory results reported in patent publication US20150291593A1, “NOVEL HETEROARYL AND HETEROCYCLE COMPOUNDS, COMPOSITIONS AND METHODS” (HUTCHISON MEDIPHARMA LIMITED, priority 2012, published 2015).
# What was measured:
# Type in all cases: biochemical
# p110β/p85α = biological target: T1, p110β/p85α (Homo sapiens, UniProt P42338); experiment: Transcreener KINASE Assay, kinase inhibition of p110β/p85α; details: for IC50: read-out: PI3Kβ IC50
# T1 construct: purchased Millipore
# Method: (§1) PI3K kinases including p110α/p85α, p110δ/p85α and p110γ are purchased from Invitrogen, and p110β/p85α is from Millipore.
# (§2) Primary screening data and IC50 values are measured using Transcreener™ KINASE Assay (Bellbrook, Catalog #3003-10K). […] It is a universal, homogenous, high throughput screening (HTS) technology using a far-red, competitive fluorescence polarization immunoassay based on the detection of ADP to monitor the activity of enzymes that catalyze group transfer reactions. Briefly, the Transcreener KINASE Assay is designed as a simple two-part, endpoint assay.
# (§3) In the first step, the 25 ul kinase reaction is performed by preparing a reaction mixture containing 5 ul test compound (2% DMSO final concentration), 10 ul kinase, buffer (50 mM HEPES, 100 mM NaCl, 1 mM EGTA, 0.03% CHAPS, 3 mM MgCl2, and freshly supplemented 1 mM DTT), and 10 ul 30 uM PIP2/10 uM ATP. The plate is sealed and incubated for 80 min at room temperature. Next, 25 ul ADP detection mix is added per well. The plate is sealed again and incubated for 60 min at room temperature, and then measure fluorescence polarization by Tecan Infinite F500 Reader.
# (§4) Data is analyzed and IC50s are generated using the add-in software for Microsoft Excel, Xlfit™ (version 2.0). IH %=(ADP amount under 2% DMSO-ADP amount under test compound)/ADP amount under 2% DMSO.
# p110δ/p85α = biological target: T2, p110δ/p85α (Homo sapiens, UniProt O00329); experiment: Transcreener KINASE Assay, kinase inhibition of p110δ/p85α; details: for IC50: read-out: PI3Kδ IC50
# T2 construct: purchased Invitrogen
# Method: as §1, §2, §3, §4
# p110γ = biological target: T3, p110γ (Homo sapiens, UniProt P48736); experiment: Transcreener KINASE Assay, kinase inhibition of p110γ; details: for IC50: read-out: PI3Kγ IC50
# T3 construct: purchased Invitrogen
# Method: PI3K kinases including p110α/p85α, p110δ/p85α and p110γ are purchased from Invitrogen, and p110β/p85α is from Millipore. Primary screening data and IC50 values are measured using Transcreener™ KINASE Assay (Bellbrook, Catalog #3003-10K). […] It is a universal, homogenous, high throughput screening (HTS) technology using a far-red, competitive fluorescence polarization immunoassay based on the detection of ADP to monitor the activity of enzymes that catalyze group transfer reactions. Briefly, the Transcreener KINASE Assay is designed as a simple two-part, endpoint assay. […] The plate is sealed and incubated for 80 min at room temperature. Next, 25 ul ADP detection mix is added per well. The plate is sealed again and incubated for 60 min at room temperature, and then measure fluorescence polarization by Tecan Infinite F500 Reader. Data is analyzed and IC50s are generated using the add-in software for Microsoft Excel, Xlfit™ (version 2.0).
# T2 sequence (O00329 whole entry, species assumed): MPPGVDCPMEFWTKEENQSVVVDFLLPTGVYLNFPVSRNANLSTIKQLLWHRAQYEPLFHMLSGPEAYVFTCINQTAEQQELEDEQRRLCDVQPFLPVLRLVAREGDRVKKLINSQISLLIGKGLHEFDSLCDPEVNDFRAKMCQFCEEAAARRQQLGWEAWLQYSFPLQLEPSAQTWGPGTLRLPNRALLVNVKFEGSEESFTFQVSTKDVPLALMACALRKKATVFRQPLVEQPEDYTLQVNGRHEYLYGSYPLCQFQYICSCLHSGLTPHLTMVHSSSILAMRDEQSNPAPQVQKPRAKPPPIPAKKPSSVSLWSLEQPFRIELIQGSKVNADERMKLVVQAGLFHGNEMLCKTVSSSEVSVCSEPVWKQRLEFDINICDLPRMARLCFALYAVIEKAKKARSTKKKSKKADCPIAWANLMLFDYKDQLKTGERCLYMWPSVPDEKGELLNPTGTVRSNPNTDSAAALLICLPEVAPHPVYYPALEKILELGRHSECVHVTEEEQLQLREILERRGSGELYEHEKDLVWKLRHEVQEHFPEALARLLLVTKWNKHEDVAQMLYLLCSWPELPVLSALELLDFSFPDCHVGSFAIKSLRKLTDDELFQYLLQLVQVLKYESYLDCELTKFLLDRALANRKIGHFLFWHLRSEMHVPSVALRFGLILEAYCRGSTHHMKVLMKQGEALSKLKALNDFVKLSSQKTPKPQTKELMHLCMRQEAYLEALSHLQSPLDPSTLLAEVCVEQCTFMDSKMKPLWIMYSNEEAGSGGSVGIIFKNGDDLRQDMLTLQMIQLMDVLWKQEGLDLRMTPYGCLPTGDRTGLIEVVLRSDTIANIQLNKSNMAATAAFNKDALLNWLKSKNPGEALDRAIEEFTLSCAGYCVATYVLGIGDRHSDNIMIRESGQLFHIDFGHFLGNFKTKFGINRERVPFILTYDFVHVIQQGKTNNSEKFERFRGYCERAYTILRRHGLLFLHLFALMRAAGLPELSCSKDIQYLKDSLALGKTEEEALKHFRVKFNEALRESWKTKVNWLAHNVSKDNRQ
# T2 sequence (P27986 whole entry partner, species assumed): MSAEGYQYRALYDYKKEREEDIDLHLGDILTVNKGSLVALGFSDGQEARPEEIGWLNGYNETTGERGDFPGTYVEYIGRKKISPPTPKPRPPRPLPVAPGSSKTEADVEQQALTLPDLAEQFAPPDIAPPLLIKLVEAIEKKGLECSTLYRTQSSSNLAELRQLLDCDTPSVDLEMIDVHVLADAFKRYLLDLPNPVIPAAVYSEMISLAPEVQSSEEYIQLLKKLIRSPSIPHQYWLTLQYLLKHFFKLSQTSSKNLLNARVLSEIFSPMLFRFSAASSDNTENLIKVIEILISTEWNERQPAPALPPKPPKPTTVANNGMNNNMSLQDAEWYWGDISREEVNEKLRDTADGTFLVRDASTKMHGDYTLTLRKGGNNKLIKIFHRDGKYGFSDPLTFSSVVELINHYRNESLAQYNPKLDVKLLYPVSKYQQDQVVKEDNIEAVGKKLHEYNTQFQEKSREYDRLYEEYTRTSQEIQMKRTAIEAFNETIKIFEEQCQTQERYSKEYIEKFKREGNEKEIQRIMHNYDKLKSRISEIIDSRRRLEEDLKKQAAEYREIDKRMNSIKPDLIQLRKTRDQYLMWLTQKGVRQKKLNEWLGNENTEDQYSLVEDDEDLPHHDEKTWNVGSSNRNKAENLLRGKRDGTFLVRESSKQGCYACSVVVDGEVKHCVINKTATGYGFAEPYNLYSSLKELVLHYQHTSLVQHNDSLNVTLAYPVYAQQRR
# T1 sequence (P42338 whole entry, species assumed): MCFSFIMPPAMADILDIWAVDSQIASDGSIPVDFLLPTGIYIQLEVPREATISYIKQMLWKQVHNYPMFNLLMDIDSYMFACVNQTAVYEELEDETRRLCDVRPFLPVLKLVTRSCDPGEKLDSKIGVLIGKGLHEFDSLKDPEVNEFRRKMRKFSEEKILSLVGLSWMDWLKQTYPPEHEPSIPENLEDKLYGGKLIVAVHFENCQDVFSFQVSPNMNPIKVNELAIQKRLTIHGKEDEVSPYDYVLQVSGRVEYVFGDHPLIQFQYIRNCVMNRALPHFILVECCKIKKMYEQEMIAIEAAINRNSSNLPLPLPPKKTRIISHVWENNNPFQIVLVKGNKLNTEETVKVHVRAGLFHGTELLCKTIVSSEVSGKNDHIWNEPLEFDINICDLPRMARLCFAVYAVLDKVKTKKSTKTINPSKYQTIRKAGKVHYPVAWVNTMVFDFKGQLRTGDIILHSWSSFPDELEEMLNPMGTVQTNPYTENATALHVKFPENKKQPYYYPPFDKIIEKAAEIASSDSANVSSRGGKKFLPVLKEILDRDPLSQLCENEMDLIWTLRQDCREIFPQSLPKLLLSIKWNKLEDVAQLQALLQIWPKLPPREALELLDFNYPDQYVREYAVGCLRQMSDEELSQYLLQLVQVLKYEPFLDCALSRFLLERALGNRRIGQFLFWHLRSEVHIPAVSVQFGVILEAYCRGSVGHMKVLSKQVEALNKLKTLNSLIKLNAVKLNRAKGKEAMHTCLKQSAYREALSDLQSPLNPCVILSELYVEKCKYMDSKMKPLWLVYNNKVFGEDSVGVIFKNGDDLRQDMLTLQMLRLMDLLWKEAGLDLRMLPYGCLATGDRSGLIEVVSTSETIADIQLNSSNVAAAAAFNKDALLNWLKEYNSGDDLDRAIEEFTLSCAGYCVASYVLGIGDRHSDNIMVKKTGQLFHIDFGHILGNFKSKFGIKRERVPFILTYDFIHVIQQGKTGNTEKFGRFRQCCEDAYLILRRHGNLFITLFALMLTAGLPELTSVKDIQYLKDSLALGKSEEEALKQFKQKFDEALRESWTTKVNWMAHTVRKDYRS
# T1 sequence (P27986 whole entry partner, species assumed): as the sequence (P27986 whole entry partner, species assumed) above
# T3 sequence (P48736 whole entry, species assumed): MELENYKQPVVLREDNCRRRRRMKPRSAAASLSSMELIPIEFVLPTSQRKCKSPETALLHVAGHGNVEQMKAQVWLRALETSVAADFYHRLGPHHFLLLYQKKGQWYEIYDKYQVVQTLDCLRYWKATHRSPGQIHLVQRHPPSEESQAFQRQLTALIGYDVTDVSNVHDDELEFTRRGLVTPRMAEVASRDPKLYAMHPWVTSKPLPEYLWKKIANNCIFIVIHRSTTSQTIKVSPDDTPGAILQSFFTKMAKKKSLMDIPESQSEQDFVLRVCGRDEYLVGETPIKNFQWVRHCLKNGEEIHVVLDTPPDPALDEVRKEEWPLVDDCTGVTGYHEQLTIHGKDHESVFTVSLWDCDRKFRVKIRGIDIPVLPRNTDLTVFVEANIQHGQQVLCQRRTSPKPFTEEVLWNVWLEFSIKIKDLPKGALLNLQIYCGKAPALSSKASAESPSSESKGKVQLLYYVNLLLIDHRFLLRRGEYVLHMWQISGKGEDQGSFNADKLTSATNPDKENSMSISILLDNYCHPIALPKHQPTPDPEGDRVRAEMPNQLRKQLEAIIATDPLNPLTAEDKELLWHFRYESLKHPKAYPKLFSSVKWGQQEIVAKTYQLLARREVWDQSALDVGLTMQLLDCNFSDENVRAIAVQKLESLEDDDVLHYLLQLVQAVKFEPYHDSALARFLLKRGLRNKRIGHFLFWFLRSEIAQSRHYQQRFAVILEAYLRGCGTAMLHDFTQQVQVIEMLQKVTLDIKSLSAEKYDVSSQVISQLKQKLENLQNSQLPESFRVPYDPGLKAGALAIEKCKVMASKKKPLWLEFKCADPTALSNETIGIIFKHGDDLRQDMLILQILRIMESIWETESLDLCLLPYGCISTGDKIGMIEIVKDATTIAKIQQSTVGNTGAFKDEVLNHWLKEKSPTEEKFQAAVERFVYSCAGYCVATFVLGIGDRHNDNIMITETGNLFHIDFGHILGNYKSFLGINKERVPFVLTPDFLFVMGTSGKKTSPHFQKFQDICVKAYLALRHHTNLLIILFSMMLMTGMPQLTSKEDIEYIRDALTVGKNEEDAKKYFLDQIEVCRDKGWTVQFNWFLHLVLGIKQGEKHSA
SMILES,IC50 (p110β/p85α) [nM],IC50 (p110δ/p85α) [nM],IC50 (p110γ) [nM],PI3Kβ IH % @ 1 uM (p110β/p85α) [%],PI3Kδ IH % @ 1 uM (p110δ/p85α) [%],PI3Kγ IH % @ 1 uM (p110γ) [%]
"CC(=O)c1cnc(N)nc1NC(C)c1cn2ccc(F)c2c(=O)n1-c1ccccc1 (single isomer, unassigned) [Compound 452]",13,0.3,1,–,–,–
COc1cccc(-n2c([C@@H]3CCCN3c3ncnc4[nH]cc(C#N)c34)nn3cccc3c2=O)c1 [Compound 9],–,–,–,31.1,>100,83.8
Nc1nc(N2CCC[C@H]2c2nn3cccc3c(=O)n2-c2ccccc2)c2cc[nH]c2n1 [Compound 10],–,–,–,6.0,60.4,59.5
Nc1nc(N2CCC[C@H]2c2nn3cccc3c(=O)n2-c2ccccc2)c2cn[nH]c2n1 [Compound 11],–,–,–,−7.7,22.9,24.4
O=c1c2cccn2nc([C@@H]2CCCN2c2ncnc3[nH]nc(Br)c23)n1-c1ccccc1 [Compound 12],–,158,–,23.1,80.6,27.9
O=c1c2cccn2nc([C@@H]2CCCN2c2ncnc3[nH]cnc23)n1-c1cccc(F)c1 [Compound 13],–,–,477,18.0,97.8,71.9
O=c1c2cccn2nc([C@@H]2CCCN2c2ncnc3[nH]cnc23)n1-c1ccc(F)cc1 [Compound 14],–,–,265,56.9,90.7,78.1
N#Cc1c[nH]c2ncnc(N3CCC[C@H]3c3nn4cccc4c(=O)n3-c3cccc(F)c3)c12 [Compound 16],–,–,85,25.1,100,87.3
O=c1c2cccn2nc([C@@H]2CCCN2c2ncnc3[nH]cnc23)n1-c1cccc(Cl)c1 [Compound 17],–,–,–,9.2,100,60.3
Nc1ncnc(N2CCC[C@H]2c2nn3cccc3c(=O)n2-c2ccccc2)c1Cl [Compound 18],–,–,–,30.9,100,53.2
COc1cccc(-n2c([C@@H]3CCCN3c3ncnc(N)c3C#N)nn3cccc3c2=O)c1 [Compound 19],–,–,287,24.0,100,75.7
COc1cccc(-n2c([C@@H]3CCCC3c3ncnc4[nH]cnc34)nn3cccc3c2=O)c1 (stereo partly drawn) [Compound 20],–,–,–,7.5,97.4,68.6
COc1cccc(-n2c([C@@H]3CCCN3c3ncnc(N)c3Cl)nn3cccc3c2=O)c1 [Compound 21],–,–,–,−1.3,94.3,30.4
N#Cc1c[nH]c2ncnc(N3CCC[C@@H]3c3nn4cccc4c(=O)n3-c3ccccc3)c12 [Compound 22],–,–,–,8.9,7.7,21.2
N#Cc1cccc(-n2c([C@@H]3CCCN3c3ncnc4[nH]cc(C#N)c34)nn3cccc3c2=O)c1 [Compound 23],–,–,273,36.9,99.2,81.9
O=c1c2cccn2nc([C@H]2CCCN2c2ncnc3[nH]cnc23)n1-c1ccccc1 [Compound 24],–,–,–,8.3,17.7,14.1
CC(Nc1ncnc2[nH]cc(C#N)c12)c1cn2ccc(Cl)c2c(=O)n1-c1cccc(F)c1 (stereo not drawn) [Compound 76],–,4,10,82.0,–,–
CC(Nc1ncnc(N)c1C#N)c1cn2ccc(Cl)c2c(=O)n1-c1cc(F)cc(F)c1 (stereo not drawn) [Compound 81],–,6,70,79.0,>100,–
O=c1c2cccn2nc([C@@H]2CCCN2c2ncnc3[nH]cc(-c4cn[nH]c4)c23)n1-c1ccccc1 [Compound 99],147,3,6,78.8,>100,94.2
"N#Cc1c[nH]c2ncnc(N3CCC[C@H]3c3nn4c(F)ccc4c(=O)[nH]3)c12 [Compound 106, (S)-4-(2-(7-fluoro-4-oxo-3,4-dihydropyrrolo[1,2-f][1,2,4]triazin-2-yl)pyrrolidin-1-yl)-7H-pyrrolo[2,3-d]pyrimidine-5-carbonitrile]",–,232,–,61.9,86.8,41.1
"N#Cc1n[nH]c2ncnc(N3CCC[C@H]3c3nn4cccc4c(=O)n3-c3ccccc3)c12 [Compound 110, (S)-4-(2-(4-oxo-3-phenyl-3,4-dihydropyrrolo[1,2-f][1,2,4]triazin-2-yl)pyrrolidin-1-yl)-1H-pyrazolo[3,4-d]pyrimidine-3-carbonitrile]",–,–,–,23.9,72.8,38.7
N#Cc1ccn2nc([C@@H]3CCCN3c3ncnc4[nH]cnc34)n(-c3ccccc3)c(=O)c12 [Compound 112],–,26,231,34.5,94.6,96.4
CC(Nc1ncnc2[nH]cc(C#N)c12)c1cc2cccn2c(=O)n1-c1ccccc1 (stereo not drawn) [Compound 121],–,–,–,63.9,92.7,>100
O=c1c2c(Cl)ccn2nc([C@@H]2CC(F)(F)CN2c2ncnc3[nH]cnc23)n1Cc1ccccn1 [Compound 159],–,127,–,32.8,85.0,20.4
C[S+]([O-])c1c[nH]c2ncnc(N3CCC[C@H]3c3nn4ccc(Cl)c4c(=O)n3-c3ccccc3)c12 (stereo partly drawn) [Compound 187],88,–,33,–,–,–
C[S+]([O-])c1c[nH]c2ncnc(N3CCC[C@H]3c3nn4ccc(Cl)c4c(=O)n3-c3ccccc3)c12 (stereo partly drawn) [Compound 188],741,5,17,–,–,–
C[C@H]1CCN(c2ncnc3[nH]cc(C#N)c23)C1c1nn2ccc(Cl)c2c(=O)n1-c1ccccc1 (stereo partly drawn) [Compound 233],26,4,13,–,–,–
C[C@H]1CCN(c2ncnc3[nH]cnc23)C1c1nn2ccc(Cl)c2c(=O)n1-c1ccccc1 (stereo partly drawn) [Compound 234],50,2,12,–,–,–
O=c1c2c(Cl)ccn2nc([C@@H]2CCCN2c2ncnc3[nH]cnc23)n1CC1CC1 [Compound 256],–,6,82,68.1,97.5,>100
N#Cc1cnc(N)nc1N1CCC1c1nn2ccc(Cl)c2c(=O)n1CC1CC1 (stereo not drawn) [Compound 373],> 1000,27,361,–,–,–
